Patent US20260001883A1, “5H-PYRROLO[2,3-D]PYRIMIDIN-6(7H)-ONE AND CRYSTAL OF SALT THEREOF” (priority 2022, published 2026)
Where a name gives a salt, the structure may show the parent alone.

Columns and labels:
Type in all cases: physicochemical
[1] = Solid state stability test (preservation stability, 70° C./75% RH, 2 weeks); conditions: for Appearance change / Powder X-ray diffraction pattern (change after preservation) / Total amount of analogous substances (%) 70° C./75% RH (closed system) / Total amount of analogous substances (%) 70° C./75% RH (open system) / amount of analogous substances after preservation (in words): after 2 weeks at 70° C./75% RH; for Total amount of analogous substances (%) 70° C./75% RH (closed system) / Total amount of analogous substances (%) 70° C./75% RH (open system) / Total amount of analogous substances (%) Initial value: HPLC; for Total amount of analogous substances (%) Initial value: before preservation, UV 220 nm
Procedure: The preservation stability of each of the type I crystal, type II crystal, and type III crystal of the free base of Compound (I), which were produced according to the methods described in Examples 1, 2 and 3 above, respectively, was tested under the following conditions. • Preservation conditions: 70° C./75% RH (open system and closed system) • Measuring point: 2 weeks • Preserved amount: about 50 mg • Preservation container: brown glass bottle
The powder X-ray diffraction of the sample after preservation was measured according to the aforementioned method. A change in the amount of analogous substances (the amount of substances detected other than Compound (I)) was measured by weighing out about 1 mg of the sample, dissolving it in about 5 mL of a water/acetonitrile mixed solution (1:1), accurately measuring 5 μL of this solution, and analyzing it by HPLC using the following method. • Column: InertSustain C18, 4.6×150 mm, 3 μm • Column temperature: 40° C. • Column flow rate: 1.0 mL/min • Mobile phase: A—10 mM phosphate buffer (pH 5.5)/acetonitrile (9:1); B—acetonitrile • Detection UV: 220 nm • Gradient: […]
(§1) The crystal of the hydrochloride of Compound (I), the crystal of the maleate of Compound (I), the crystal of ½ malate of Compound (I), and the crystal of the acetate of Compound (I),which were produced according to the methods described in Example 4, Example 5, Comparative Example 1, and Comparative Example 2, were tested in terms of preservation stability under the conditions of Test Example 1.

[2] = Dynamic moisture adsorption/desorption test; conditions: 25° C., humidity 5% RH to 95% RH and back to 5% RH
Procedure: For the test, a VTI-SA+ (TA Instruments) was used. About 10 mg of each of a free base type I crystal, a free base type II crystal, and a […] was weighed, and was placed in a pan. While confirming that the weight fluctuation was within 0.0100% in 5 minutes, the temperature was raised up to 60° C. at 1 degree per minute. If the weight fluctuated, the temperature was maintained for a maximum of 5 hours before proceeding to the next step. Thereafter, the temperature was lowered to 25° C., and the humidity was raised from 5% RH to 95% RH, and was then lowered to 5% RH. At that time, the humidity was changed by 5% RH while confirming that the weight fluctuation was within 0.00100% in 5 minutes. If the weight fluctuated, the humidity was maintained for a maximum of 2 hours before proceeding to the next step.
as §1, with “2.” for “1.”

[3] = Heat stability test (powder X-ray diffraction under heating to 210° C.); conditions: heating from 25° C. to 210° C.
Procedure: Using the free base type I crystal, the free base type II crystal, and the free base type III crystal, which were produced according to the methods described in Examples 1, 2 and 3 above, a heat stability test was carried out.
Powder X-ray diffraction measurement was carried out at 25° C., and the temperature was raised to 50° C. over 30 minutes, after which powder X-ray diffraction measurement was carried out. Thereafter, the temperature was further raised to 210° C. at 10° C./10 minutes, and powder X-ray diffraction measurement was then carried out. After that, the temperature was lowered to 25° C. over 30 minutes, and powder X-ray diffraction measurement was then carried out.

[4] = listed as free base type III crystal
[5] = listed as crystal of the maleate of Compound (I)
[6] = listed as free base type II crystal
[7] = listed as crystal of the acetate of Compound (I)
[8] = listed as crystal of the hydrochloride of Compound (I)
[9] = listed as crystal of the ½ malate of Compound (I)

Compound | Appearance change [1] | Powder X-ray diffraction pattern (change after preservation) [1] | Total amount of analogous substances (%) 70° C./75% RH (closed system) [1] [%] | Total amount of analogous substances (%) 70° C./75% RH (open system) [1] [%] | Total amount of analogous substances (%) Initial value [1] [%] | also measured
CC(C)(C)NCCNc1ccc(-c2nnc(C(F)(F)F)o2)nc1C1CCN(c2ncnc3c2C(C)(C)C(=O)N3)CC1 [Frcc body type III crystal, 4-(4-(3-((2-(tert-butylamino)ethyl)amino)-6-(5-(trifluoromethyl)-1,3,4-oxadiazol-2-yl)pyridin-2-yl)piperidin-1-yl)-5,5-dimethyl-5H-pyrrolo[2,3-d]pyrimidin-6(7H)-one] | No significant | No significant | 0.7 | 0.8 | 0.5 | Powder X-ray diffraction pattern (change after preservation) ([1]; listed as type III crystal): no change was observed; hygroscopicity (moisture adsorption/desorption isotherm) [2]: excellent low hygroscopicity; hygroscopicity (moisture adsorption/desorption isotherm) [2, 4]: low hygroscopicity; change of crystal form under heating (powder X-ray diffraction) [3, 4]: new peaks appeared
CC(C)(C)NCCNc1ccc(-c2nnc(C(F)(F)F)o2)nc1C1CCN(c2ncnc3c2C(C)(C)C(=O)N3)CC1 [Crystal of maleate, 4-(4-(3-((2-(tert-butylamino)ethyl)amino)-6-(5-(trifluoromethyl)-1,3,4-oxadiazol-2-yl)pyridin-2-yl)piperidin-1-yl)-5,5-dimethyl-5H-pyrrolo[2,3-d]pyrimidin-6(7H)-one] | No significant | No significant | 0.1 | 0.1 | 0.1 | Appearance change [1, 5]: no change was observed in appearance; Powder X-ray diffraction pattern (change after preservation) [1, 5]: no changes; amount of analogous substances after preservation (in words) [1, 5]: only small amounts of analogous substances; hygroscopicity (moisture adsorption/desorption isotherm) ([2]; listed as crystal of the maleate): low hygroscopicity
CC(C)(C)NCCNc1ccc(-c2nnc(C(F)(F)F)o2)nc1C1CCN(c2ncnc3c2C(C)(C)C(=O)N3)CC1 [Free body type II crystal, 4-(4-(3-((2-(tert-butylamino)ethyl)amino)-6-(5-(trifluoromethyl)-1,3,4-oxadiazol-2-yl)pyridin-2-yl)piperidin-1-yl)-5,5-dimethyl-5H-pyrrolo[2,3-d]pyrimidin-6(7H)-one] | No significant | No significant | 0.5 | 0.6 | 0.5 | Powder X-ray diffraction pattern (change after preservation) ([1]; listed as type II crystal): no change was observed; hygroscopicity (moisture adsorption/desorption isotherm) [2, 6]: low hygroscopicity; change of crystal form under heating (powder X-ray diffraction) [3, 6]: new peaks appeared
CC(C)(C)NCCNc1ccc(-c2nnc(C(F)(F)F)o2)nc1C1CCN(c2ncnc3c2C(C)(C)C(=O)N3)CC1 [Crystal of acetate, 4-(4-(3-((2-(tert-butylamino)ethyl)amino)-6-(5-(trifluoromethyl)-1,3,4-oxadiazol-2-yl)pyridin-2-yl)piperidin-1-yl)-5,5-dimethyl-5H-pyrrolo[2,3-d]pyrimidin-6(7H)-one] | No significant | – | 0.3 | 1.1 | 0.3 | Appearance change [1, 7]: no change in appearance; amount of analogous substances after preservation (in words) [1, 7]: large amounts of analogous substances

Further lines, with some results ahead:

Appearance change [1] | Powder X-ray diffraction pattern (change after preservation) [1] | Total amount of analogous substances (%) 70° C./75% RH (closed system) [1] [%] | Total amount of analogous substances (%) 70° C./75% RH (open system) [1] [%] | Total amount of analogous substances (%) Initial value [1] [%] | Compound | also measured
No significant | No significant | 0.2 | 0.2 | 0.2 | CC(C)(C)NCCNc1ccc(-c2nnc(C(F)(F)F)o2)nc1C1CCN(c2ncnc3c2C(C)(C)C(=O)N3)CC1 [Crystal of hydrochloride, 4-(4-(3-((2-(tert-butylamino)ethyl)amino)-6-(5-(trifluoromethyl)-1,3,4-oxadiazol-2-yl)pyridin-2-yl)piperidin-1-yl)-5,5-dimethyl-5H-pyrrolo[2,3-d]pyrimidin-6(7H)-one] | Appearance change [1, 8]: no change was observed in appearance; Powder X-ray diffraction pattern (change after preservation) [1, 8]: no changes; amount of analogous substances after preservation (in words) [1, 8]: only small amounts of analogous substances; hygroscopicity (moisture adsorption/desorption isotherm) ([2]; listed as crystal of the hydrochloride): lower hygroscopicity than the crystal of the ½ malate
No significant | – | 5.2 | 64.0 | 0.4 | CC(C)(C)NCCNc1ccc(-c2nnc(C(F)(F)F)o2)nc1C1CCN(c2ncnc3c2C(C)(C)C(=O)N3)CC1 [Crystal of ½ malate, 4-(4-(3-((2-(tert-butylamino)ethyl)amino)-6-(5-(trifluoromethyl)-1,3,4-oxadiazol-2-yl)pyridin-2-yl)piperidin-1-yl)-5,5-dimethyl-5H-pyrrolo[2,3-d]pyrimidin-6(7H)-one] | Appearance change [1, 9]: no change in appearance; amount of analogous substances after preservation (in words) [1, 9]: large amounts of analogous substances
No significant | No significant | 0.5 | 0.5 | 0.6 | CC(C)(C)NCCNc1ccc(-c2nnc(C(F)(F)F)o2)nc1C1CCN(c2ncnc3c2C(C)(C)C(=O)N3)CC1 [Free body type I crystal, 4-(4-(3-((2-(tert-butylamino)ethyl)amino)-6-(5-(trifluoromethyl)-1,3,4-oxadiazol-2-yl)pyridin-2-yl)piperidin-1-yl)-5,5-dimethyl-5H-pyrrolo[2,3-d]pyrimidin-6(7H)-one] | Powder X-ray diffraction pattern (change after preservation) ([1]; listed as type I crystal): no change was observed; hygroscopicity (moisture adsorption/desorption isotherm) [2]: excellent low hygroscopicity; hygroscopicity (moisture adsorption/desorption isotherm) ([2]; listed as free base type I crystal): low hygroscopicity; change of crystal form under heating (powder X-ray diffraction) ([3]; listed as free base type 1 crystal): no changes were observed in the crystal form
